In PubChem BioAssay (NCI):
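Where inhibition never reached the appropriate level, the endpoint shown equals the highest concentration tested. Otherwise, values were interpolated linearly from a five-concentration, 48-hour dose response in 96-well plates. GI50: concentration for 50% inhibition of growth. TGI: concentration producing complete growth inhibition.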

Key:
Assay in all cases: growth of human tumour cells (NCI), 48 h; in the data active = GI50 below about 0.43 µM; inactive = the rest
786-0 renal = system: 786-0 renal
A498 renal = system: A498 renal
A549 NSCLC = system: A549 NSCLC
ACHN renal = system: ACHN renal
BT-549 breast = system: BT-549 breast
CAKI-1 renal = system: CAKI-1 renal
CCRF-CEM leukemia = system: CCRF-CEM leukemia
COLO 205 colon = system: COLO 205 colon
DU-145 prostate = system: DU-145 prostate
EKVX NSCLC = system: EKVX NSCLC
HCC-2998 colon = system: HCC-2998 colon
HCT-116 colon = system: HCT-116 colon
HCT-15 colon = system: HCT-15 colon
HL-60(TB) leukemia = system: HL-60(TB) leukemia
HOP-62 NSCLC = system: HOP-62 NSCLC
HOP-92 NSCLC = system: HOP-92 NSCLC
HS 578T breast = system: HS 578T breast
IGROV1 ovarian = system: IGROV1 ovarian
K-562 leukemia = system: K-562 leukemia
KM12 colon = system: KM12 colon
M14 melanoma = system: M14 melanoma
MALME-3M melanoma = system: MALME-3M melanoma
MCF7 breast = system: MCF7 breast
MDA-MB-435 = system: MDA-MB-435
MOLT-4 leukemia = system: MOLT-4 leukemia
NCI-H23 lung = system: NCI-H23 lung
NCI-H460 lung = system: NCI-H460 lung
NCI-H522 lung = system: NCI-H522 lung
NCI/ADR-RES ovarian = system: NCI/ADR-RES ovarian
OVCAR-3 ovarian = system: OVCAR-3 ovarian
OVCAR-4 ovarian = system: OVCAR-4 ovarian
OVCAR-5 ovarian = system: OVCAR-5 ovarian
OVCAR-8 ovarian = system: OVCAR-8 ovarian
PC-3 prostate = system: PC-3 prostate
RXF 393 renal = system: RXF 393 renal
SF-268 CNS = system: SF-268 CNS
SF-295 CNS = system: SF-295 CNS
SF-539 CNS = system: SF-539 CNS
SK-MEL-2 melanoma = system: SK-MEL-2 melanoma
SK-MEL-5 melanoma = system: SK-MEL-5 melanoma
SK-OV-3 ovarian = system: SK-OV-3 ovarian
SN12C renal = system: SN12C renal
SNB-19 CNS = system: SNB-19 CNS
SNB-75 CNS = system: SNB-75 CNS
SW-620 colon = system: SW-620 colon
T-47D breast = system: T-47D breast
TK-10 renal = system: TK-10 renal
U251 CNS = system: U251 CNS
UACC-257 melanoma = system: UACC-257 melanoma
UO-31 renal = system: UO-31 renal
HT29 colon = system: HT29 colon
LOX IMVI melanoma = system: LOX IMVI melanoma
MDA-MB-231 breast = system: MDA-MB-231 breast
NCI-H226 lung = system: NCI-H226 lung
SK-MEL-28 melanoma = system: SK-MEL-28 melanoma
UACC-62 melanoma = system: UACC-62 melanoma
RPMI-8226 leukemia = system: RPMI-8226 leukemia
SR leukemia = system: SR leukemia

N#CC1C(=O)NC2=C(CCOc3c2ccc2ccccc32)C1c1ccc(F)cc1 (configuration not stated)
42.4 µM: TGI (SF-295 CNS)
54.8 µM: TGI (PC-3 prostate)
43.2 µM: TGI (TK-10 renal)
80.8 µM: TGI (SK-MEL-5 melanoma)
74 µM: TGI (NCI-H23 lung)
36 µM: TGI (RXF 393 renal)
37.9 µM: TGI (IGROV1 ovarian)
71.4 µM: TGI (CAKI-1 renal)
68 µM: TGI (M14 melanoma)
> 100 µM: TGI (A549 NSCLC) | TGI (BT-549 breast) | TGI (CCRF-CEM leukemia) | TGI (COLO 205 colon) | TGI (DU-145 prostate) | TGI (EKVX NSCLC) | TGI (HCT-15 colon) | TGI (HL-60(TB) leukemia) | TGI (K-562 leukemia) | TGI (KM12 colon) | TGI (MCF7 breast) | TGI (MDA-MB-435) | TGI (MOLT-4 leukemia) | TGI (NCI-H460 lung) | TGI (NCI-H522 lung) | TGI (OVCAR-4 ovarian) | TGI (OVCAR-8 ovarian) | TGI (SF-539 CNS) | TGI (SK-MEL-2 melanoma) | TGI (SW-620 colon) | TGI (UACC-257 melanoma)
55 µM: TGI (SK-OV-3 ovarian)
33.6 µM: TGI (HOP-62 NSCLC)
43.8 µM: TGI (HS 578T breast) | TGI (NCI/ADR-RES ovarian)
71.9 µM: TGI (OVCAR-5 ovarian)
99.5 µM: TGI (T-47D breast)
79 µM: TGI (MALME-3M melanoma)
44.1 µM: TGI (A498 renal)
28.5 µM: TGI (HOP-92 NSCLC)
40.7 µM: TGI (OVCAR-3 ovarian)
26.1 µM: TGI (ACHN renal)
88.8 µM: TGI (SF-268 CNS)
32.8 µM: TGI (786-0 renal)
59.9 µM: TGI (HCC-2998 colon)
27 µM: TGI (HCT-116 colon)
27.3 µM: TGI (SN12C renal)
52.7 µM: TGI (SNB-19 CNS)
54 µM: TGI (SNB-75 CNS)
24.7 µM: TGI (U251 CNS) | TGI (UO-31 renal)

COC(=O)C1=C(OC(=O)/C(=C/c2c(F)cccc2F)c2ccccc2)C(C(=O)OC)[C@@]2(O)[C@@H](C(=O)OC)[C@H](C)C[C@@H]1[C@@H]2C(=O)OC (some centres not stated)
> 100 µM: TGI (786-0 renal) | TGI (A549 NSCLC) | TGI (ACHN renal) | TGI (BT-549 breast) | TGI (CAKI-1 renal) | TGI (CCRF-CEM leukemia) | TGI (COLO 205 colon) | TGI (DU-145 prostate) | TGI (EKVX NSCLC) | TGI (HCT-116 colon) | TGI (HCT-15 colon) | TGI (HL-60(TB) leukemia) | TGI (HOP-62 NSCLC) | TGI (HT29 colon) | TGI (IGROV1 ovarian) | TGI (K-562 leukemia) | TGI (KM12 colon) | TGI (LOX IMVI melanoma) | TGI (M14 melanoma) | TGI (MALME-3M melanoma) | TGI (MDA-MB-231 breast) | TGI (MDA-MB-435) | TGI (MOLT-4 leukemia) | TGI (NCI-H226 lung) | TGI (NCI-H23 lung) | TGI (NCI-H460 lung) | TGI (NCI-H522 lung) | TGI (NCI/ADR-RES ovarian) | TGI (OVCAR-3 ovarian) | TGI (OVCAR-4 ovarian) | TGI (OVCAR-5 ovarian) | TGI (OVCAR-8 ovarian) | TGI (PC-3 prostate) | TGI (RXF 393 renal) | TGI (SF-268 CNS) | TGI (SF-295 CNS) | TGI (SF-539 CNS) | TGI (SK-MEL-2 melanoma) | TGI (SK-MEL-28 melanoma) | TGI (SK-OV-3 ovarian) | TGI (SN12C renal) | TGI (SNB-19 CNS) | TGI (SNB-75 CNS) | TGI (SW-620 colon) | TGI (T-47D breast) | TGI (TK-10 renal) | TGI (U251 CNS) | TGI (UACC-257 melanoma) | TGI (UACC-62 melanoma)
8.26 µM: TGI (UO-31 renal)

c1ccc(C2=NN[C@H](c3cn(-c4ccccc4)nc3-c3ccccc3)C2)cc1
5.58 µM: TGI (HOP-62 NSCLC)
inactive: GI50 (A549 NSCLC) 4.02 µM | GI50 (BT-549 breast) 5.9 µM | GI50 (CCRF-CEM leukemia) > 100 µM | GI50 (COLO 205 colon) 6.55 µM | GI50 (DU-145 prostate) 71.8 µM | GI50 (EKVX NSCLC) 4 µM | GI50 (HCC-2998 colon) > 100 µM | GI50 (HCT-15 colon) > 100 µM | GI50 (HL-60(TB) leukemia) > 100 µM | GI50 (HOP-62 NSCLC) 2.16 µM | GI50 (HOP-92 NSCLC) 2.72 µM | GI50 (HS 578T breast) 2.63 µM | GI50 (HT29 colon) > 100 µM | GI50 (IGROV1 ovarian) 5.57 µM | GI50 (K-562 leukemia) > 100 µM | GI50 (KM12 colon) > 100 µM | GI50 (LOX IMVI melanoma) 3.33 µM | GI50 (M14 melanoma) 6.46 µM | GI50 (MALME-3M melanoma) 8.98 µM | GI50 (MCF7 breast) > 100 µM | GI50 (MDA-MB-231 breast) 3.86 µM | GI50 (MDA-MB-435) > 100 µM | GI50 (MOLT-4 leukemia) > 100 µM | GI50 (NCI-H23 lung) 7.21 µM | GI50 (NCI-H460 lung) 4.26 µM | GI50 (NCI/ADR-RES ovarian) 3.98 µM | GI50 (OVCAR-8 ovarian) 3.64 µM | GI50 (PC-3 prostate) 6.22 µM | GI50 (RPMI-8226 leukemia) > 100 µM | GI50 (RXF 393 renal) 2.58 µM | GI50 (SF-268 CNS) 5.98 µM | GI50 (SF-539 CNS) 9.11 µM | GI50 (SK-MEL-2 melanoma) 30.2 µM | GI50 (SK-MEL-28 melanoma) 4.89 µM | GI50 (SK-MEL-5 melanoma) 7.66 µM | GI50 (SK-OV-3 ovarian) 2.04 µM | GI50 (SN12C renal) 4.18 µM | GI50 (SNB-19 CNS) 5.05 µM | GI50 (SNB-75 CNS) 2.05 µM | GI50 (SR leukemia) > 100 µM | GI50 (SW-620 colon) 9.34 µM | GI50 (TK-10 renal) 2.82 µM | GI50 (U251 CNS) 2.91 µM | GI50 (UACC-257 melanoma) > 100 µM | GI50 (UACC-62 melanoma) 6.61 µM | GI50 (UO-31 renal) 2.87 µM
8.07 µM: TGI (HOP-92 NSCLC)
7.74 µM: TGI (TK-10 renal)
9.85 µM: TGI (RXF 393 renal)
4.52 µM: TGI (SK-OV-3 ovarian)
> 100 µM: TGI (A549 NSCLC) | TGI (BT-549 breast) | TGI (CCRF-CEM leukemia) | TGI (COLO 205 colon) | TGI (DU-145 prostate) | TGI (EKVX NSCLC) | TGI (HCC-2998 colon) | TGI (HCT-15 colon) | TGI (HL-60(TB) leukemia) | TGI (HT29 colon) | TGI (IGROV1 ovarian) | TGI (K-562 leukemia) | TGI (KM12 colon) | TGI (LOX IMVI melanoma) | TGI (M14 melanoma) | TGI (MALME-3M melanoma) | TGI (MCF7 breast) | TGI (MDA-MB-231 breast) | TGI (MDA-MB-435) | TGI (MOLT-4 leukemia) | TGI (NCI-H23 lung) | TGI (NCI-H460 lung) | TGI (NCI/ADR-RES ovarian) | TGI (OVCAR-8 ovarian) | TGI (PC-3 prostate) | TGI (RPMI-8226 leukemia) | TGI (SF-268 CNS) | TGI (SF-539 CNS) | TGI (SK-MEL-2 melanoma) | TGI (SK-MEL-28 melanoma) | TGI (SK-MEL-5 melanoma) | TGI (SN12C renal) | TGI (SNB-19 CNS) | TGI (SR leukemia) | TGI (SW-620 colon) | TGI (UACC-257 melanoma) | TGI (UACC-62 melanoma) | TGI (UO-31 renal)
4.19 µM: TGI (SNB-75 CNS)
15.6 µM: TGI (U251 CNS)
7.45 µM: TGI (HS 578T breast)
